23 compounds from patent publication US12612410B2 (CHILDREN'S HOSPITAL MEDICAL CENTER, priority 2020, dated 2026) can be followed below.

A word on the IC50: it is the midpoint of a concentration-inhibition curve.

This experiment concerns the target T1, FLT3 (Homo sapiens, UniProt P36888).
T1 sequence (P36888 27-993): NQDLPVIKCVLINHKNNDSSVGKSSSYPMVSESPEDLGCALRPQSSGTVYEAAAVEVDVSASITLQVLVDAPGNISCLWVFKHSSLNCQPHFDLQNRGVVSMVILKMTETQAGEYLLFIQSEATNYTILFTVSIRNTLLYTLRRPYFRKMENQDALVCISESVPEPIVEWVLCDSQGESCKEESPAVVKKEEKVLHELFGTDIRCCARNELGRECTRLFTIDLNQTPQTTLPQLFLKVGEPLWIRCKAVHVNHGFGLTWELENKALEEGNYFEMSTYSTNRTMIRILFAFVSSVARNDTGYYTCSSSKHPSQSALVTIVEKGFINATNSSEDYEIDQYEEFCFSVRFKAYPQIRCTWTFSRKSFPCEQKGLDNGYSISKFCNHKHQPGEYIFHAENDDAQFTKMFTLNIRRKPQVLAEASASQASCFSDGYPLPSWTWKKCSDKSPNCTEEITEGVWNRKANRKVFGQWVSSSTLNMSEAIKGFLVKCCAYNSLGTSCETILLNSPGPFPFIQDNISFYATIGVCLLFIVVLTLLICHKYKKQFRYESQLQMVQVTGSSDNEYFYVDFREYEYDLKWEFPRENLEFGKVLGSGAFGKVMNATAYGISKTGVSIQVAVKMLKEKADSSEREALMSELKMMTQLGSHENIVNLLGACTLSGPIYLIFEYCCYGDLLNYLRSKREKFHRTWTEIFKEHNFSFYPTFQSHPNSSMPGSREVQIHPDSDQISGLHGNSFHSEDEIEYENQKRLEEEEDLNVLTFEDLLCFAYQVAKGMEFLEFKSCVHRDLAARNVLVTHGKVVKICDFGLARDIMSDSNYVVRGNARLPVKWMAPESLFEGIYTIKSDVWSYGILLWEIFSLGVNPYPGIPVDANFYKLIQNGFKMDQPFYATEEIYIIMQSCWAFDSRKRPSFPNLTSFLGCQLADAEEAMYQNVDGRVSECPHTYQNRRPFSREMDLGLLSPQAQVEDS
The experiment is described as follows: Reaction Biology NanoBRET target engagement assay, FLT3. The class given is cell-based. As to conditions: transfected HEK-293 cells. The text has this:
The NanoBRET assay measures kinase engagement in real time in the context of the intact cell. Unlike the previously described biochemical kinase assay methodologies in Examples 26-27, the NanoBRET assay measures the binding and activity characteristics under equilibrium conditions using full-length kinases in the presence of cellular concentrations of ATP in live, uncompromised cells. As such, the assay provides a more relevant assessment of kinase potency and selectivity that would be expected to be observed in the native cellular environment, where potency is often considerably lower than that observed in the isolated biochemical assays (Vasta, J. D. et al., (2018) Cell Chem. Biol. 25, 206-214). The assay uses a Kinase-NanoLuc® fusion vector expressing a kinase protein to which a luciferase tag has been added, a cell-permeant fluorescent NanoBRET™ tracer, a NanoLuc® substrate, and an extracellular NanoLuc® inhibitor. Upon expression of the luciferase-tagged kinase, cells will produce a strong BRET signal only in the presence of the NanoBRET™ tracer. The extracellular NanoLuc® inhibitor ensures that the BRET signal observed emanates only from live cells. Because the BRET signal has tight distance constraints, addition of the test compound will decrease the BRET signal if the compound competes with the NanoBRET™ tracer for binding to the kinase domain. Under the appropriate tracer conditions established by the manufacturer, quantitative intracellular affinity and relative potency can then be determined using Mass Action model equations.
HEK-293 cells were purchased from ATCC. FuGENEHD Transfection Reagent, Kinase-NanoLucfusion plasmids, Transfection Carrier DNA, NanoBRETTracers and dilution buffer, NanoBRETNano-Glo Substrate, Extracellular NanoLucInhibitor were obtained from Promega.
Assays were conducted following Promega assay protocol with some modifications. HEK-293 Cells were transiently transfected with Kinase-NanoLucFusion Vector DNA by FuGENEHD Transfection Reagent. Testing compounds were delivered into 384 well assay plate by Echo 550 (Labcytelnc, Sunnyvale, CA). Transfected cells were harvested and mixed with NanoBRETTracer Reagent and dispensed into 384 well plates and incubated at 37° C. in 5% CO2 cell culture incubator for 1 hour. The NanoBRETNano-Glo Substrate plus Extracellular NanoLucInhibitor Solution were added into the wells of the assay plate and incubated for 2-3 minutes at room temperature. The donor emission wavelength (460 nm) and acceptor emission wavelength (600 nm) were measured in the EnVisionplate reader. The BRET Ratios were calculated. BRET Ratio=[(Acceptor sample÷Donor sample)−(Acceptor no-tracer control÷Donor no-tracer control)]. The IC50 values of compounds were calculated with Prism GraphPad program.
NanoBRET™ Target Engagement Assay Protocol
1. Transient Transfection of HEK-293 Cells NanoLuc® Fusion Vector DNA
• 1). Cultivate HEK-293 cells (70-80% confluence) appropriately prior to assay. Trypsinize and collect HEK-293 cells. • 2). Prepare lipid: DNA complexes as follows: • a. Prepare a […] solution of DNA in Opti-MEM without serum that consists of the following ratios of carrier DNA and DNA encoding NanoLuc® fusion. 9.0 µg/mL of Transfection Carrier DNA, […] of NanoLuc fusion vector DNA and 1 mL of Opti-MEM without phenol red. Mix thoroughly. • b. Add 30 l of FuGENE HD Transfection Reagent into each milliliter of DNA mixture to form lipid: DNA complex. • c. Mix by inversion 10 times. • d. Incubate at ambient temperature for 20 minutes to allow complexes to form. • 3). In a sterile, conical tube, mix 1 part of lipid: DNA complex with 20 parts of HEK-293 cells in suspension. Mix gently by inversion 5 times. • 4). Dispense cells+lipid: DNA complex into a sterile tissue culture dish and incubate for 22-24 hours. 2. Addition of Test Compounds (dry plate shooting)
Each test compound is delivered from the compound source plate to the wells of 384-well white NBS plate by Echo 550.
3. […]
(In BRET a luciferase serves as donor, and the signal depends on an acceptor being close.)
The compound `CC(O)(c1cn2c(-c3cccc(N[C@H]4CNC[C@@H]4F)n3)cnc2cn1)C(F)(F)F` (single isomer, unassigned) [Compound 77] came in with an IC50 of 277 nM. The figure for `CC(O)(c1cn2c(-c3cccc(N[C@H]4CNC[C@@H]4F)n3)cnc2cn1)C(F)(F)F` (single isomer, unassigned) [Compound 78] is 40 nM; for `CC(O)(c1cn2c(-c3cccc(N[C@H]4CNCC[C@@H]4F)n3)cnc2cn1)C(F)(F)F` (single isomer, unassigned) [Compound 80] it is 94 nM. The figure for `CC(O)(c1cn2c(-c3cccc(N[C@@H]4CCCNC4)n3)cnc2cn1)C(F)(F)F` (single isomer, unassigned) [Compound 81] is 15 nM. With `CC(O)(c1cn2c(-c3cccc(N[C@H]4CNCC[C@@H]4F)n3)cnc2cn1)C(F)(F)F` (single isomer, unassigned) [Compound 82], the IC50 worked out at 40 nM. `CC1(c2cn3c(-c4cccc(N[C@H]5CNC[C@@H]5F)n4)cnc3cn2)CC1` [Compound 1, N-((3S,4S)-4-fluoropyrrolidin-3-yl)-6-(6-(1-methylcyclopropyl)imidazo[1,2-a]pyrazin-3-yl)pyridin-2-amine] displayed an IC50 of 6 nM.

In turn, `CC1(c2cn3c(-c4cccc(N[C@@H]5CCNC5)n4)cnc3cn2)CC1` [Compound 3, (R)-6-(6-(1-methylcyclopropyl)imidazo[1,2-a]pyrazin-3-yl)-N-(pyrrolidin-3-yl)pyridin-2-amine] came in with an IC50 of 3 nM. The result for `CC1(c2cn3c(-c4cccc(N[C@H]5CNCC56CC6)n4)cnc3cn2)CC1` [Compound 5, (R)-N-(6-(6-(1-methylcyclopropyl)imidazo[1,2-a]pyrazin-3-yl)pyridin-2-yl)-5-azaspiro[2.4]heptan-7-amine] reads less than 0.5 nM; that for `FC(F)c1cn2c(-c3cccc(N[C@H]4CNC[C@@H]4F)n3)cnc2cn1` [Compound 16, 6-(6-(difluoromethyl)imidazo[1,2-a]pyrazin-3-yl)-N-((3S,4S)-4-fluoropyrrolidin-3-yl)pyridin-2-amine], 21 nM; that for `FC(F)c1cn2c(-c3cccc(N[C@H]4CNCC[C@@H]4F)n3)cnc2cn1` [Compound 25, 6-(6-(difluoromethyl)imidazo[1,2-a]pyrazin-3-yl)-N-((3S,4S)-4-fluoropiperidin-3-yl)pyridin-2-amine], 6 nM. The figure for `CC(C)(O)c1cn2c(-c3cccc(N[C@H]4CNCC[C@@H]4F)n3)cnc2cn1` [Compound 31, 2-(3-(6-(((3S,4S)-4-fluoropiperidin-3-yl)amino)pyridin-2-yl)imidazo[1,2-a]pyrazin-6-yl)propan-2-ol] is 136 nM; for `CC(C)(O)c1cn2c(-c3nc(N[C@H]4CNC[C@@H]4F)c(F)cc3F)cnc2cn1` [Compound 33, 2-(3-(3,5-difluoro-6-(((3S,4S)-4-fluoropyrrolidin-3-yl)amino)pyridin-2-yl)imidazo[1,2-a]pyrazin-6-yl)propan-2-ol] it is 1500 nM; for `CC(C)(O)c1cn2c(-c3nc(N[C@@H]4CCCNC4)c(F)cc3F)cnc2cn1` [Compound 34, (R)-2-(3-(3,5-difluoro-6-(piperidin-3-ylamino)pyridin-2-yl)imidazo[1,2-a]pyrazin-6-yl)propan-2-ol] it is 177 nM. The result for `CC(C)(O)c1cn2c(-c3nc(N[C@H]4CNCC[C@@H]4F)c(F)cc3F)cnc2cn1` [Compound 35, 2-(3-(3,5-difluoro-6-(((3S,4S)-4-fluoropiperidin-3-yl)amino)pyridin-2-yl)imidazo[1,2-a]pyrazin-6-yl)propan-2-ol] reads 216 nM; that for `FC(F)(F)COc1cn2c(-c3cccc(N[C@@H]4CCNC4)n3)cnc2cn1` [Compound 38, (R)-N-(pyrrolidin-3-yl)-6-(6-(2,2,2-trifluoroethoxy)imidazo[1,2-a]pyrazin-3-yl)pyridin-2-amine], 12 nM. As to `Cn1cc(-c2cn3c(-c4cccc(N[C@@H]5CCCNC5)n4)cnc3cn2)cn1` [Compound 43, (R)-6-(6-(1-methyl-1H-pyrazol-4-yl)imidazo[1,2-a]pyrazin-3-yl)-N-(piperidin-3-yl)pyridin-2-amine], the IC50 was found to be 73 nM. The result for `F[C@H]1CNC[C@@H]1Nc1cccc(-c2cnc3cnc(C4CC4)cn23)n1` [Compound 50, 6-(6-cyclopropylimidazo[1,2-a]pyrazin-3-yl)-N-((3S,4S)-4-fluoropyrrolidin-3-yl)pyridin-2-amine] reads 10 nM; that for `F[C@H]1CCNC[C@@H]1Nc1cccc(-c2cnc3cnc(C4CC4)cn23)n1` [Compound 51, 6-(6-cyclopropylimidazo[1,2-a]pyrazin-3-yl)-N-((3S,4S)-4-fluoropiperidin-3-yl)pyridin-2-amine], 4 nM; that for `FC(F)COc1cn2c(-c3cccc(N[C@H]4CNC[C@@H]4F)n3)cnc2cn1` [Compound 58, 6-(6-(2,2-difluoroethoxy)imidazo[1,2-a]pyrazin-3-yl)-N-((3S,4S)-4-fluoropyrrolidin-3-yl)pyridin-2-amine], 52 nM. `O=S1(=O)CCCN1c1cn2c(-c3cccc(N[C@H]4CNCC[C@@H]4F)n3)cnc2cn1` [Compound 97, 2-(3-(6-(((3S,4S)-4-fluoropiperidin-3-yl)amino)pyridin-2-yl)imidazo[1,2-a]pyrazin-6-yl)isothiazolidine 1,1-dioxide] registered an IC50 of 0.9 nM.

With `O=C1CCCN1c1cn2c(-c3nc(N[C@H]4CNCC[C@@H]4F)c(F)cc3F)cnc2cn1` [Compound 107, 1-[3-[3,5-difluoro-6-[[(3S,4S)-4-fluoro-3-piperidyl]amino]-2-pyridyl]imidazo[1,2-a]pyrazin-6-yl]pyrrolidin-2-one], the half-inhibitory concentration (IC50) was 0.9 nM. The figure for `O=C1CCCN1c1cn2c(-c3nc(N[C@@H]4CCCNC4)c(F)cc3F)cnc2cn1` [Compound 108, (R)-1-(3-(3,5-difluoro-6-(piperidin-3-ylamino)pyridin-2-yl)imidazo[1,2-a]pyrazin-6-yl)pyrrolidin-2-one] is 31 nM; for `O=C1CCCN1c1cn2c(-c3cccc(N[C@H]4CNCC[C@@H]4F)n3)cnc2cn1` [Compound 119, 1-(3-(6-(((3S,4S)-4-fluoropiperidin-3-yl)amino)pyridin-2-yl)imidazo[1,2-a]pyrazin-6-yl)pyrrolidin-2-one] it is 16 nM.
